Each structure is given as a SMILES string. Where only a bound is given, the exact number is not on record here.

The first test deals with human VPS34 (Homo sapiens (Human), UniProt Q8NEB9). Description: Human VPS34 enzyme assay (Adapta TR-FRET ADP detection).
human VPS34, sequence (Q8NEB9 whole entry): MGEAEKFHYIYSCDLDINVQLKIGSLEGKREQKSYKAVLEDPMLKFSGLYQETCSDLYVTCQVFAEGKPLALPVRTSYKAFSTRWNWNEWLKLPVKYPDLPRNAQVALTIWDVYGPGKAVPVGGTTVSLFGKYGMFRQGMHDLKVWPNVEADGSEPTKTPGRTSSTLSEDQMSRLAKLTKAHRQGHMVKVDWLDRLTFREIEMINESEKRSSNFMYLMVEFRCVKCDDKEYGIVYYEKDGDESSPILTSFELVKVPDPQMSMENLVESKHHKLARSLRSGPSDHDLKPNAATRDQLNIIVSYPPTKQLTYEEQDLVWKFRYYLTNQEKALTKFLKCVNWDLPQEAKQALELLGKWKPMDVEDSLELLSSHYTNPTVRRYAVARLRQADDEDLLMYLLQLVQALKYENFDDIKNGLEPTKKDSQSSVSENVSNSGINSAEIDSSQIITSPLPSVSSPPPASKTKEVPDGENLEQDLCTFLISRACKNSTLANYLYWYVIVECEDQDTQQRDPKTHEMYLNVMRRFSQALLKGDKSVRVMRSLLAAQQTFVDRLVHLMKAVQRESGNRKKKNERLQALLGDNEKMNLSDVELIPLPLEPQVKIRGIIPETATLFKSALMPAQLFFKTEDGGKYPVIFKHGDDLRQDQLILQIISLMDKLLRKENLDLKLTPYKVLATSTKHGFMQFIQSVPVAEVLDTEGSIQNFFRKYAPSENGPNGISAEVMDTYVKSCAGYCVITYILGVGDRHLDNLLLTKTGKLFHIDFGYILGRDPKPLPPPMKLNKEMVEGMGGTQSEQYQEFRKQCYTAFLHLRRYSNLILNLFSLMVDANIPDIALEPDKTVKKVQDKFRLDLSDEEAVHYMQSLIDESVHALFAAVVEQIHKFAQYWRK
Settings: not given
Also on record: Percent Inhibition: dose or concentration left out as unconfirmed. Format: biochemical. A general note: In TR-FRET formats the signal depends on donor and acceptor labels being close together.
With `CC(=O)Nc1cc(-c2cnc(C)c(NS(=O)(=O)c3cc(F)ccc3F)c2)ccn1` [Compound I-52], the “Percent Inhibition” value is recorded as more than 99%. On the same count and under the same terms, under `CC(=O)Nc1cc(-c2cnc(Cl)c(NS(=O)(=O)c3cn(C)nc3C(F)(F)F)c2C)ccn1` [Compound I-493, N-[6-chloro-4-methyl-5-({[1-methyl-3-(trifluoromethyl)-1H-pyrazol-4-yl]sulfonyl}amino)-3,4′-bipyridin-2′-yl]acetamide] stands 99%; under `Cc1ncc(-c2ccnc(NC(=O)C3CC3(F)F)c2)cc1NS(=O)(=O)c1ccc(F)cc1F` (single isomer, unassigned) [Compound I-267b, N-(5-{[(2,4-difluorophenyl)sulfonyl]amino}-6-methyl-3,4′-bipyridin-2′-yl)-2,2-difluorocyclopropanecarboxamide], 94%.

The same test, now with this note: IC50 range class.
Broadly, the IC50 is the concentration that inhibits the measured activity by half. `CC(=O)Nc1cc(-c2cnc(C)c(NS(=O)(=O)c3ccccc3C(F)(F)F)c2)ccn1` [Compound I-62, N-[6-methyl-5-({[2-(trifluoromethyl)phenyl]sulfonyl}amino)-3,4′-bipyridin-2′-yl]acetamide] showed an IC50 of less than 10 nM. For `CC(=O)Nc1cc(-c2cnc(Cl)c(NS(=O)(=O)c3ccccc3F)c2C)ccn1` [Compound I-251, N-(6-chloro-5-{[(2-fluorophenyl)sulfonyl]amino}-4-methyl-3,4′-bipyridin-2′-yl)acetamide], the IC50 lay within 10 to 50 nM.

`CN(C)S(=O)(=O)Nc1cc(-c2ccnc(Nc3ccnc(C4CC4)n3)c2)cn2nccc12` [Compound I-427, N′-(6-{2-[(2-cyclopropylpyrimidin-4-yl)amino]pyridin-4-yl}pyrazolo[1,5-a]pyridin-4-yl)-N,N-dimethylsulfuric diamide] had an IC50 of less than 10 nM.

In turn, `CC(=O)Nc1cc(-c2cncc(NC(=O)Cc3ccccc3)c2)ccn1` [Compound I-106, N-(2′-acetamido-3,4′-bipyridin-5-yl)-2-phenylacetamide] yielded an IC50 of more than 100 nM.

`Cc1ncc(-c2ccnc(NC(=O)C3CCC3)c2)cc1NS(=O)(=O)c1ccc(F)cc1F` [Compound I-305, N-(5-{[(2,4-difluorophenyl)sulfonyl]amino}-6-methyl-3,4′-bipyridin-2′-yl)cyclobutanecarboxamide] had an IC50 of 10 to 50 nM. The same measure, in the same setting: in the case of `CC(=O)Nc1cc(-c2cnc(N)c(S(=O)(=O)Cc3ccc4ccccc4c3)c2)ccn1` [Compound I-3, N-{6-amino-5-[(2-naphthylmethyl)sulfonyl]-3,4′-bipyridin-2′-yl}acetamide] it was 50 to 100 nM; in that of `CC(=O)Nc1cc(-c2cnc(Cl)c(NS(=O)(=O)c3ccccc3Cl)c2C)ccn1` [Compound I-240, N-(6-chloro-5-{[(2-chlorophenyl)sulfoayl]amino}-4-methyl-3,4′-bipyridin-2′-yl)acetamide], 10 to 50 nM.

With `CC(=O)Nc1cc(-c2cnc(Cl)c(NS(=O)(=O)N3CCCC3)c2C)ccn1` [Compound I-488, N-{6-chloro-4-methyl-5-[(pyrrolidin-1-ylsulfonyl)amino]-3,4′-bipyridin-2′-yl}acetamide], the IC50 lay in the range of 10 to 50 nM. On the same count and under the same terms, under `CC(=O)Nc1cc(-c2cnc(C)c(N3CC(NCc4ccccc4)CS3(=O)=O)c2)ccn1` (centres unmarked) [Compound I-357, N-{5-[4-(benzylamino)-1,1-dioxidoisothiazolidin-2-yl]-6-methyl-3,4′-bipyridin-2′-yl}acetamide] stands 10 to 50 nM. Still for that read-out and setting: under `CC(=O)Nc1cc(-c2cnc(C)c(NS(=O)(=O)c3cc(F)ccc3F)c2)ccn1` [Compound I-52] stands less than 10 nM; under `CC(=O)Nc1cc(-c2cnc(Cl)c(NS(=O)(=O)c3cn(C)nc3C(F)(F)F)c2C)ccn1` [Compound I-493, N-[6-chloro-4-methyl-5-({[1-methyl-3-(trifluoromethyl)-1H-pyrazol-4-yl]sulfonyl}amino)-3,4′-bipyridin-2′-yl]acetamide], 10 to 50 nM.

As for `CC(=O)Nc1cc(-c2cncc(S(=O)(=O)N(C)C)c2)ccn1` [Compound I-137, N-[5-(dimethylsulfamoyl)-3,4′-bipyridin-2′-yl]acetamide], the half-maximal inhibitory concentration (IC50) lay within 10 to 50 nM. Same read-out and setting: in the case of `Cc1nccc(Nc2cc(-c3cnc(C)c(C(=O)N(C)C45CC(C4)C5)c3)ccn2)n1` [Compound I-275, N-(bicyclo[1.1.1]pent-1-yl)-N,6-dimethyl-2′-[(2-methylpyrimidin-4-yl)amino]-3,4′-bipyridine-5-carboxamide] it was 10 to 50 nM; in that of `N=C(N)NC(=O)c1cc(-c2ccnc(Nc3ccncn3)c2)cnc1N` [Compound I-216, 6-Amino-N-carbamimidoyl-2′-(pyrimidin-4-ylamino)-3,4′-bipyridine-5-carboxamide], 50 to 100 nM; in that of `CC(=O)Nc1cc(-c2cncc(S(=O)(=O)N3CCC(F)(F)C3)c2)ccn1` [Compound I-118, N-{5-[(3,3-difluoropyrrolidin-1-yl)sulfonyl]-3,4′-bipyridin-2′-yl}acetamide], 10 to 50 nM. Same read-out and setting: in the case of `CC(=O)Nc1cc(-c2cnc(C)c(NS(=O)(=O)N3CCN(C)CC3)c2)ccn1` [Compound I-269, N-(6-methyl-5-{[(4-methylpiperazin-1-yl)sulfonyl]amino}-3,4′-bipyridin-2′-yl)acetamide] it was 10 to 50 nM; in that of `CC(=O)Nc1cc(-c2cnc(N)c(C(=O)N3CC[C@@H](F)C3)c2)ccn1` [Compound I-157, N-[6-amino-5-{[(3R)-3-fluoropyrrolidin-1-yl]carbonyl}-3,4′-bipyridin-2′-yl)acetamide], 10 to 50 nM.

In turn, `CC(=O)Nc1cc(-c2cnc(C)c(NS(=O)(=O)c3ccc(Cl)cc3)c2)ccn1` [Compound I-154, N-(5-{[(4-chlorophenyl)sulfonyl]amino}-6-methyl-3,4′-bipyridin-2′-yl)acetamide] displayed an IC50 of less than 10 nM. Still for that read-out and setting: in the case of `CC(=O)Nc1cc(-c2cncc(S(=O)(=O)NC3CCC3)c2)ccn1` [Compound I-396, N-[5-(cyclobutylsulfamoyl)-3,4′-bipyridin-2′-yl]acetamide] it was 10 to 50 nM.

Compound `Cc1ncc(-c2ccnc(NC(=O)C3CC3(F)F)c2)cc1NS(=O)(=O)c1ccc(F)cc1F` (single isomer, unassigned) [Compound I-267b, N-(5-{[(2,4-difluorophenyl)sulfonyl]amino}-6-methyl-3,4′-bipyridin-2′-yl)-2,2-difluorocyclopropanecarboxamide] displayed an IC50 of 10 to 50 nM.

For the compound `Cc1ncc(-c2ccnc(Nc3ccnc(C(F)(F)F)n3)c2)cc1NS(=O)(=O)c1ccc(F)cc1F` [Compound I-237, 2,4-difluoro-N-(6-methyl-2′-{[2-(trifluoromethyl)pyrimidin-4-yl]amino}-3,4′-bipyridine-5-yl)benzenesulfonamide], the IC50 fell in the range of 10 to 50 nM. On the same count and under the same terms, under `CC(=O)Nc1cc(-c2cncc(C(=O)/C=C/c3ccc(F)cc3)c2)ccn1` [Compound I-198, N-[5-[(2E)-3-(4-fluorophenyl)prop-2-enoyl]-3,4′-bipyridin-2′-yl}acetamide] stands more than 100 nM; under `CC(=O)Nc1cc(-c2cnc(Cl)c(N3CCCNS3(=O)=O)c2)ccn1` [Compound I-448, N-[6-chloro-5-(1,1-dioxido-1,2,6-thiadiazinan-2-yl)-3,4′-bipyridin-2′-yl]acetamide], 10 to 50 nM; under `CNc1ncc(-c2ccnc(NC(C)=O)c2)c(C)c1S(=O)(=O)NC(C)(C)C` [Compound I-436], 50 to 100 nM. The same measure, in the same setting: in the case of `O=C(c1cncc(-c2ccnc(Nc3ccnc(C4CC4)n3)c2)c1)N1CC(F)(F)C1` [Compound I-413, (2′-[(2-cyclopropylpyrimidin-4-yl)amino]-3,4′-bipyridin-5-yl)(3,3-difluoroazetidin-1-yl)methanone] it was 10 to 50 nM. Same read-out and setting: in the case of `CC(=O)Nc1cc(-c2cnc(Cl)c(N3CCCN(C)S3(=O)=O)c2)ccn1` [Compound I-467, N-[6-chloro-5-(6-methyl-1,1-dioxido-1,2,6-thiadiazinan-2-yl)-3,4′-bipyridin-2′-yl)acetamide] it was less than 10 nM; in that of `CC(=O)Nc1cc(-c2cncc(N3CCOc4cc(F)ccc4S3(=O)=O)c2)ccn1` [Compound I-405], 10 to 50 nM; in that of `CC(=O)Nc1cc(-c2cnc(Cl)c(S(=O)(=O)NC(CO)c3ccccc3)c2)ccn1` (stereo in doubt) [Compound I-403, N-(6-chloro-5-{[(1R)-2-hydroxy-1-phenylethyl]sulfamoyl}-3,4′-bipyridin-2′-yl)acetamide], more than 100 nM.

Regarding `CC(=O)Nc1cc(-c2cnc3ccn(CC4CC4)c3c2)ccn1` [Compound I-93, N-{4-[1-(cyclopropylmethyl)-1H-pyrrolo[3,2-b]pyridin-6-yl]pyridin-2-yl}acetamide], the IC50 lay within 10 to 50 nM. The compound `COc1ncc(-c2ccnc(NC(C)=O)c2)cc1S(=O)(=O)Nc1cc(F)ccc1F` [Compound I-358, N-{5-[(2,5-difluorophenyl)sulfamoyl]-6-methoxy-3,4′-bipyridin-2′-yl}acetamide] showed an IC50 of 10 to 50 nM. `CC(=O)Nc1cc(-c2cnc(N)c(C(=O)Nc3cccc(F)c3)c2)ccn1` [Compound I-82, 2′-acetamido-6-amino-N-(3-fluorophenyl)-3,4′-bipyridine-5-carboxamide] showed a half-inhibitory concentration (IC50) of 10 to 50 nM. On the same count and under the same terms, under `COc1ncc(-c2ccnc(NC(C)=O)c2)cc1S(=O)(=O)Nc1ccccc1` [Compound I-39, N-[6-methoxy-5-(phenylsulfamoyl)-3,4′-bipyridin-2′-yl]acetamide] stands less than 10 nM; under `COc1ccc(S(=O)(=O)Nc2cc(-c3ccnc(NC(C)=O)c3)cnc2C)c(F)c1` [Compound I-163, N-(5-{[(2-fluoro-4-methoxyphenyl)sulfonyl]amino}-6-methyl-3,4′-bipyridin-2′-yl)acetamide], less than 10 nM. As for `CC(=O)Nc1cc(-c2cnc(Cl)c(NS(=O)(=O)c3ccc(Cl)cc3Cl)c2C)ccn1` [Compound I-243, N-(6-chloro-5-{[(2,4-dichlorophenyl)sulfonyl]amino}-4-methyl-3,4′-bipyridin-2′-yl)acetamide], the IC50 was in the range of 10 to 50 nM.

For the compound `Cc1nccc(Nc2cc(-c3cncc(C(=O)N4CC(F)(F)C4)c3)ccn2)n1` [Compound I-408, (3,3-difluoroazetidin-1-yl){2′-[(2-methylpyrimidin-4-yl)amino]-3,4′-bipyridin-5-yl}methanone], the IC50 lay in the range of 10 to 50 nM. On to `Cc1nccc(Nc2cc(-c3cnc(C)c(C(=O)N4CC5(COC5)C4)c3)ccn2)n1` [Compound I-415, {6-methyl-2′-[(2-methylpyrimidin-4-yl)amino]-3,4′-bipyridin-5-yl}(2-oxa-6-azaspiro[3,3]hept-6-yl)methanone], for which the IC50 was 10 to 50 nM. `CC(=O)Nc1cc(-c2cnc3cc[nH]c3c2)ccn1` [Compound I-17, N-[4-(1H-pyrrolo[3,2-b]pyridin-6-yl)pyridin-2-yl]acetamide] showed an IC50 of 50 to 100 nM. Same read-out and setting: under `CC(=O)Nc1cc(-c2cnc(C)c(NS(=O)(=O)c3ccc(C)cc3F)c2)ccn1` [Compound I-182, N-(5-{[(2-fluoro-4-methylphenyl)sulfonyl]amino}-6-methyl-3,4′-bipyridin-2′-yl)acetamide] stands less than 10 nM.

(Values after patent publication US9751854B2 (Millennium Pharmaceuticals, Inc., priority 2014, dated 2017).)
